Assay results published in patent US8552018B2, “Substituted tricyclic compounds as protein kinase inhibitors” (Arizona Board of Regents on behalf of the University of …, priority 2003, dated 2013).
Read-outs that look alike come from different tables or passages of the source.

Key:
[1] = biological target: T1, aurora-2 kinase (Homo sapiens, UniProt O14965); experiment: Aurora-2 kinase inhibition assay (Kinase-Glo); assay type: biochemical; settings: for degree of inhibition of aurora-2 kinase activity (rank among tested compounds): 20 μM, FIG. 10; for IC50: aurora-2 kinase, FIG. 11
T1 construct: purchased Imgenex, San Diego, Calif; host or cells: sf9 cells
T1 sequence (O14965 1-403): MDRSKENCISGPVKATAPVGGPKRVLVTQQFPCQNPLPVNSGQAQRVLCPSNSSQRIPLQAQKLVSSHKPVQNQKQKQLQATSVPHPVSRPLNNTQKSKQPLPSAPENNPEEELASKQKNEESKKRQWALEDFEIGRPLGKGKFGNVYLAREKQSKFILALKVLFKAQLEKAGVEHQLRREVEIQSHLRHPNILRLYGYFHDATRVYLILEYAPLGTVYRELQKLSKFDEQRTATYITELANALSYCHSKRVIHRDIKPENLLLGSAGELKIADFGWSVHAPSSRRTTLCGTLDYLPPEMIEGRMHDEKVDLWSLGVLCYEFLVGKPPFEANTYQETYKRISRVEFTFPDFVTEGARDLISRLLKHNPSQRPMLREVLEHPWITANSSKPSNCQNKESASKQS
Experimental: In this assay kinase activity is determined by quantifying the amount of ATP remaining in solution following the kinase reaction by measuring the light units (LU) produced by luciferase using a luminometer. Percent inhibition was determined for individual compounds by comparing luminometer readings of drug-treated reactions to controls containing no drug (DMSO control) and no Aurora-2 enzyme (ATP control) in the following equation: […]
In a 50 μl reaction, recombinant aurora-2 kinase produced in sf9 cells (Imgenex, San Diego, Calif.) was incubated at 30° C. for two hours with 62.5 μM Kemptide (Calbiochem, San Diego, Calif.), 3 μM ATP (Invitrogen, Carlsbad, Calif.) and kinase reaction buffer (40 mM Tris-HCl, 10 mM MgCl2 and 0.1 μg/μl bovine serum albumin (BSA)). This reaction was carried out in the presence of drug substances, which had been previously diluted to desired concentrations in DMSO. After incubation, 50 μl of Kinase-Glo® (Promega, Inc., Madison, Wis.) solution was added to each reaction mixture and allowed to equilibrate for 10 minutes at room temperature. Kinase-Glo solution contains luciferase enzyme and luciferin, which react with ATP to produce light. Kinase activity is determined by quantifying the amount of ATP remaining in solution following the kinase reaction by measuring the light units (LU) produced by luciferase using a luminometer (PerkinElmer, Boston, Mass.).

[2] = biological target: PDGFRa (Homo sapiens, UniProt P16234); experiment: Autophosphorylation assay with γ-32P-ATP; assay type: biochemical; settings: FIG. 28B
Sequence of PDGFRa (P16234 24-1089): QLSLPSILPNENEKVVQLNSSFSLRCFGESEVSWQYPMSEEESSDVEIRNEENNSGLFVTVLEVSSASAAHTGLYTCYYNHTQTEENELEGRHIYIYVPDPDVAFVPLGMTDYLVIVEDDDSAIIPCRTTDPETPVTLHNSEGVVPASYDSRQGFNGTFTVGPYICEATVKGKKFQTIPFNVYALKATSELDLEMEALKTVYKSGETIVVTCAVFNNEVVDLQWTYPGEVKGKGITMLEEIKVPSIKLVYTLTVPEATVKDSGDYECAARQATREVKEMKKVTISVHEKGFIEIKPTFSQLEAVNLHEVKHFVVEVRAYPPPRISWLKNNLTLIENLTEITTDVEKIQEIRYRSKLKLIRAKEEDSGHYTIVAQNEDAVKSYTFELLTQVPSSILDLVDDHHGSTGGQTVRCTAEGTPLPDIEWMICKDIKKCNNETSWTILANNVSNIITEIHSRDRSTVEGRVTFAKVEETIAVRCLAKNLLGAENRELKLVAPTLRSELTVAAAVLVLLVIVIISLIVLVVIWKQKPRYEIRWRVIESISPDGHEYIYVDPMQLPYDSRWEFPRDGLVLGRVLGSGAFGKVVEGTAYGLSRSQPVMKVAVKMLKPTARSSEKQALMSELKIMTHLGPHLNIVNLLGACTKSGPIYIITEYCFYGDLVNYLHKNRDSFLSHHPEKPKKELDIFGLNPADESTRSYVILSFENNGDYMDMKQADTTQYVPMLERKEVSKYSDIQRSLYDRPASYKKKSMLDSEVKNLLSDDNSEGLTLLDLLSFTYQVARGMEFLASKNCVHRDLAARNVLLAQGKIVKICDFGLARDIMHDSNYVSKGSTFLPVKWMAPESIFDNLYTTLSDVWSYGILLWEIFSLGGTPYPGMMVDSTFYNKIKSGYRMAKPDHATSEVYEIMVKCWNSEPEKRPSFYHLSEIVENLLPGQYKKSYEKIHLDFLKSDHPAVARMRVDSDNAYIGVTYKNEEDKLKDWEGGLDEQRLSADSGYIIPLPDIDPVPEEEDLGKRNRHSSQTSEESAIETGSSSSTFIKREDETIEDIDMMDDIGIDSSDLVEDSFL
Experimental: (§1) Enzymes were incubated with the appropriate concentration of inhibitor and radiolabeled γ-^32P-ATP. After 30 minutes, the reaction mixtures were electrophoresed on an acrylamide gel and autophosphorylation, quantitated by the amount of radioactivity incorporated into the enzyme, was assayed.

[3] = biological target: c-Kit (Homo sapiens, UniProt P10721); experiment: Autophosphorylation assay with γ-32P-ATP; assay type: biochemical; settings: FIG. 28A
Sequence of c-Kit (P10721 26-976): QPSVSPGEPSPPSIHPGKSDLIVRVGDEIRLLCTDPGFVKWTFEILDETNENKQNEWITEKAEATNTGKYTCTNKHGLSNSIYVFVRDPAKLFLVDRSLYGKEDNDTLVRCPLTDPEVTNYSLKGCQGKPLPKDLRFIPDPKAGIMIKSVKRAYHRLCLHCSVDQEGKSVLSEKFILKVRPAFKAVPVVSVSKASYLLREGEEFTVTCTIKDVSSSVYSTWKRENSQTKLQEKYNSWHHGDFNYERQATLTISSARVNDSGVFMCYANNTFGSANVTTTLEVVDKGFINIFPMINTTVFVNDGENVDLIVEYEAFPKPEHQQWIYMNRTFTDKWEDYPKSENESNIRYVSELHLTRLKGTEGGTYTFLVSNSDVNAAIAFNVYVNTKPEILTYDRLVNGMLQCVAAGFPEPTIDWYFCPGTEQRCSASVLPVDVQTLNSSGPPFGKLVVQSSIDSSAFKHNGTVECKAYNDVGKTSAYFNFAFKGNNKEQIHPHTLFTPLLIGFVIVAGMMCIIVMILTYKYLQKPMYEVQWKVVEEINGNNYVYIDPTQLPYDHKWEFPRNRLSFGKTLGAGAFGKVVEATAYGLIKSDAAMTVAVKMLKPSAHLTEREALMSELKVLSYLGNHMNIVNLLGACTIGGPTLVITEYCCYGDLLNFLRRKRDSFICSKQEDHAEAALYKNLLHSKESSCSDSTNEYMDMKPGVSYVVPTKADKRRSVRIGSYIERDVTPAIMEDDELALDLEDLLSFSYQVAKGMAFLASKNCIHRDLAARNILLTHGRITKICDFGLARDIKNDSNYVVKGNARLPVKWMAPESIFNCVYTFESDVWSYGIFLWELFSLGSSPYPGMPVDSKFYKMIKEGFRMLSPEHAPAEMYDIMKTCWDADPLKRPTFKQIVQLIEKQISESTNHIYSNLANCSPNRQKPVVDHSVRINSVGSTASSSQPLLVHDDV
Experimental: as §1

[4] = biological target: c-met (Homo sapiens, UniProt P08581); experiment: Activity against c-met (stated); assay type: biochemical
Sequence of c-met (P08581 25-1390): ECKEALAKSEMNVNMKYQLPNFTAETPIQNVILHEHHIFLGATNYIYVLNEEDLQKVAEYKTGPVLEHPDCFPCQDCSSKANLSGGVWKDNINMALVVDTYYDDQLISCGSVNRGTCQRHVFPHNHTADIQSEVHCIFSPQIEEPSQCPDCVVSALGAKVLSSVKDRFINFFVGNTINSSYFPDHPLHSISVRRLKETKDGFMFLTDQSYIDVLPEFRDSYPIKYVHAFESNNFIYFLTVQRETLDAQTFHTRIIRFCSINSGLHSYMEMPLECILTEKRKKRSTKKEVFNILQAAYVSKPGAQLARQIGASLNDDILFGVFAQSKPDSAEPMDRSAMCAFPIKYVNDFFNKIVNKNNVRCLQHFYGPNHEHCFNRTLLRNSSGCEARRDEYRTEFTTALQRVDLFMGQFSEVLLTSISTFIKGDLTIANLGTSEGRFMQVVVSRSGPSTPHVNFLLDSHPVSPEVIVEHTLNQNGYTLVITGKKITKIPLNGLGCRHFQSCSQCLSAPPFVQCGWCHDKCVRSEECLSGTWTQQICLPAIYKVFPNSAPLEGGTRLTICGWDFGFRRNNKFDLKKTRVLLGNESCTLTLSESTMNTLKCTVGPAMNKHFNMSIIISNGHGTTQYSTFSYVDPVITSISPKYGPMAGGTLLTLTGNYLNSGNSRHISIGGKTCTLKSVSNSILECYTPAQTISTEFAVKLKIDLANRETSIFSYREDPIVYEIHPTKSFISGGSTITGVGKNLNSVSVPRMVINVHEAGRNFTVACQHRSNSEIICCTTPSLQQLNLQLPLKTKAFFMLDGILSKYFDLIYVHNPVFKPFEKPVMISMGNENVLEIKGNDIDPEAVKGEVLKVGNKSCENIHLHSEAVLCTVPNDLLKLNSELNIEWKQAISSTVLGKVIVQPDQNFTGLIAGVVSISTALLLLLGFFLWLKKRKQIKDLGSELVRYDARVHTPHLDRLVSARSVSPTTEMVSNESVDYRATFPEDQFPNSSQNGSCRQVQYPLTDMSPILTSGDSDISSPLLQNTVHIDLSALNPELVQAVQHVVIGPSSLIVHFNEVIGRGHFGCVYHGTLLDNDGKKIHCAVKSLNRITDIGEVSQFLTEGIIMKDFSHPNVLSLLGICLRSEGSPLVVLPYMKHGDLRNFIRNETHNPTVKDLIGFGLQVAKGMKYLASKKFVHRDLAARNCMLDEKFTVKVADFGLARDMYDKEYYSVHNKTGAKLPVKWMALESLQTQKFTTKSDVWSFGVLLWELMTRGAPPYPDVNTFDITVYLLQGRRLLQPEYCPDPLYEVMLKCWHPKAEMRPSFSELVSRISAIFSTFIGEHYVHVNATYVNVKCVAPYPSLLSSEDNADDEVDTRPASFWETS

[5] = tested on: SF-767 glioblastoma multiformes cells; experiment: MTS cell death assay; assay type: cell-based
Experimental: To evaluate the ability of MP470 to enhance clinical therapy we used MP470 in combination with ionizing radiation on culture cancer cells. SF-767 glioblastoma multiformes cells were treated with 1 μM MP470, 800c Gy IR, or a combination of both.

[6] = biological target: Flt3(D835Y)(h) (Homo sapiens, UniProt P36888, D835Y); experiment: Kinase profile screen; assay type: biochemical; settings: 1 uM
Experimental: (§2) In order to determine the specificity and potential alternative targets for MP470, kinase profile screen were performed utilizing the KinaseProfiler™ Screen (Upstate Corp) and Select Screen™ kinase profiling (Invitrogen). Between the two screens, 53 different kinases were tested, representing a broad proportion of the human kinome. MP470 was screened at a concentration of 1 μM against both wildtype and mutant kinases.

[7] = biological target: PDGFRα(D842V)(h) (Homo sapiens, UniProt P16234, D842V); experiment: Kinase profile screen; assay type: biochemical; settings: 1 uM
Sequence of PDGFRα(D842V)(h) (P16234 24-1089 D842V): as the sequence (P16234 24-1089) above, with D819V counted along it
Experimental: as §2

[8] = biological target: PDGFRα(V561D)(h) (Homo sapiens, UniProt P16234, V561D); experiment: Kinase profile screen; assay type: biochemical; settings: 1 uM
Sequence of PDGFRα(V561D)(h) (P16234 24-1089 V561D): as the sequence (P16234 24-1089) above, with V538D counted along it
Experimental: as §2

[9] = biological target: cKit(D816V)(h) (Homo sapiens, UniProt P10721, D816V); experiment: Kinase profile screen; assay type: biochemical; settings: 1 uM
Sequence of cKit(D816V)(h) (P10721 26-976 D816V): as the sequence (P10721 26-976) above, with D791V counted along it
Experimental: as §2

[10] = biological target: cKit(V560G)(h) (Homo sapiens, UniProt P10721, V560G); experiment: Kinase profile screen; assay type: biochemical; settings: 1 uM
Sequence of cKit(V560G)(h) (P10721 26-976 V560G): as the sequence (P10721 26-976) above, with V535G counted along it
Experimental: as §2

[11] = biological target: cKit(V654A)(h) (Homo sapiens, UniProt P10721, V654A); experiment: Kinase profile screen; assay type: biochemical; settings: 1 uM
Sequence of cKit(V654A)(h) (P10721 26-976 V654A): as the sequence (P10721 26-976) above, with V629A counted along it
Experimental: as §2

[12] = tested on: c-Met autophosphorylation in NIH 3T3 cells; experiment: Immunoblot for phospho-Met; assay type: cell-based
Experimental: (§3) MP-470 (Compound III-1-3) has inhibitory effects on a number of receptor tyrosine kinases. In order to evaluate these effects at the cellular level, immunoblot analysis was performed on lysates from cells treated with MP470, with or without the addition of the EGFR inhibitor Tarceva®. Lysates were assayed for general tyrosine kinase activity, as well as the specific phosphorylation of c-Met and Akt. Briefly, NIH 3T3 cells were pretreated with drugs as indicated for 4 hours, then treated with pervanadate for a further 30 minutes. Immunoblot detection was carried out with antibodies for phosphotyrosine, phospho-Met and phospho-Akt (S473), as well as total c-Met and Akt. Beta-actin was used as a loading control.

[13] = tested on: Akt phosphorylation in NIH 3T3 cells; experiment: Immunoblot for phospho-Akt (S473); assay type: cell-based
Experimental: as §3, with “In” for “MP-470 (Compound III-1-3) has inhibitory effects on a number of receptor tyrosine kinases. In”

[14] = biological target: T1, aurora-2 kinase; experiment: Protein kinase inhibitory activity (Example 33, Kinase-Glo); assay type: biochemical; settings: FIG. 27
Experimental: Percent activity was determined for individual compounds by comparing luminometer readings of drug-treated reactions to controls containing no drug (RLUNo Inhib) and no Aurora-2 enzyme (RLUNo Kinase) in the following equation:
After incubation, 50 μl of Kinase-Glo® (Promega, Inc., Madison, Wis.) solution was added to each reaction mixture and allowed to equilibrate for 10 minutes at room temperature. Kinase-Glo solution contains luciferase enzyme and luciferin, which react with ATP to produce light. Kinase activity is determined by quantifying the amount of ATP remaining in solution following the kinase reaction by measuring the relative light units (RLU) produced by luciferase using a luminometer (Thermo Electron Corporation, Vantaa, Finland).

[15] = NIH 3T3, MP-470 in combination with Tarceva®

Row | Structure (SMILES) | aurora-2 kinase inhibitory activity (in words) [1] | degree of inhibition of aurora-2 kinase activity (rank among tested compounds) [1] | IC50 [1] | inhibition of PDGFRa autophosphorylation (in words) [2] | inhibition of c-Kit autophosphorylation (in words) [3] | activity against c-met (in words) [4] | cell death (MTS) ([5]; SF-767, 1 μM MP470 alone) | increase of cell death over either agent alone ([5]; SF-767, 1 μM MP470 in combination with 800c Gy IR) | activity against mutant kinase [6] | activity against mutant kinase [7] | activity against mutant kinase [8] | activity against mutant kinase [9] | activity against mutant kinase [10] | activity against mutant kinase [11] | activating autophosphorylation of c-Met ([12]; NIH 3T3, 4 hours, agent alone) | activating autophosphorylation of c-Met [12, 15] | phosphorylation of Akt ([13]; NIH 3T3, 4 hours, agent alone) | phosphorylation of Akt [13, 15] | aurora-2 kinase inhibitory activity (in words) ([1]; listed as II-2-6) | kinase inhibitory activity (in words) [14]
1 | COc1cc2ncnc(N3CCN(C(=S)Nc4ccc(S(=O)(=O)Nc5ncccn5)cc4)CC3)c2cc1OC [HPK16, 4-(6,7-Dimethoxy-quinazolin-4-yl)-piperazine-1-carbothioic acid [4-(pyrimidin-2-ylsulfamoly)-phenyl]-amide] | particularly effective inhibitors | second highest inhibition | 4700 nM |  |  |  |  |  |  |  |  |  |  |  |  |  |  |  |  | 
2 | S=C(NCc1ccc2c(c1)OCO2)N1CCN(c2ncnc3c2oc2ccccc23)CC1 [HPK56, 4-Benzo[4,5]furo[3,2-d]pyrimidin-4-yl-piperazine-1-carbothioic acid (benzo[1,3]dioxol-5-ylmethyl)-amide] |  |  |  | dose-dependent | dose-dependent | low micromolar | induced cell death | more than 2 fold | activity | activity | activity | activity | activity | activity | reduced | reduced | reduced | reduced |  | 
3 | COc1cc2[nH]c3ncnc(N4CCN(C(=S)Nc5ccc(S(=O)(=O)Nc6ncccn6)cc5)CC4)c3c2cc1OC [HPK62, 4-(6,7-Dimethoxy-9H-1,3,9-triaza-fluoren-4-yl)-piperazine-1-carbothioic acid [4-(pyrimidin-2-ylsulfamoyl)-phenyl]-amide] | particularly effective inhibitors | highest inhibition | 900 nM |  |  |  |  |  |  |  |  |  |  |  |  |  |  |  | low nanomolar | highest activity
